Measured values: patent publication US20070149580A1, “USE OF PEROXISOME PROLIFERATOR ACTIVATED RECEPTOR DELTA AGONISTS FOR THE TREATMENT OF MS AND OTHER DEMYELINATING DISEASES” (AVENTIS PHARMACEUTICALS INC., priority 2004, published 2007)

Assays:
[1] = tested on: cultured rat oligodendrocytes; experiment: Quantitative PCR of MBP mRNA in cultured rat oligodendrocytes; format: cell-based; conditions: FIGS. 2 and 3
From the text: • 1. Primary rat oligodendrocyte progenitor cells are obtained from the neocortex of newborn (postnatal days 2-3) rats or mice and are enriched, after removal of microglia, by mechanical separation from the astrocytic monolayer using a modification of the technique originally described by McCarthy and de Vellis (1980). • 2. Remove the meninges from neonatal rat brain and mechanically dissociate tissue. Plate cells on T75 flasks and feed cells with DMEM/F12+10% FBS. • 3. Collect oligodendrocytes growing on the astrocyte bed layer by shaking-off method fourteen days after the original prep date. Centrifuge the suspension and resuspend the cell pellet in serum free media (SFM; DMEM combined with 25 μg/ml transferring, 30 nM triiodothyronine, 20 nM hydrocortisone, 20 nM progesterone, 10 nM biotin, 1× trace elements, 30 nM selenium, 1 μg/ml putrescine, 0.1% BSA, 5 U/ml PenStrep, 10 μg/ml insulin) supplemented with the following growth factors: Platelet derived growth factor-AA (PDGF) and fibroblast growth factor-2 (FGF). • 4. Plate the cells on PDL-coated dishes and incubate at 37° C. with 6-7% CO2. • 5. Media components are replaced every 48 hr to keep the cells in a progenitor state. Progenitor Cell Passaging to Increase Cell Numbers for Screening Assays: • 1. […]
• 1. […] PPAR delta pathway member transcript expression is quantitated using Sybr Green PCR Master Mix. • 4. […]

human RXR receptor = experiment: Cellular human RXR receptor luciferase reporter assay; format: cell-based; conditions: Retinoid X receptor
Procedure: Determination of EC50 Values in the Cellular Human RXR Receptor Assay
Cell Based RXR Assay Protocol
To perform cell based assays a luciferase assay is performed in 96 well plates as follows: […]
• Aspirate medium from cells • Freeze plates at −20° C. (optional) • Thaw plates for 30 min (if necessary) • Add 50 μl Bright-Glo-Luciferase Assay Reagent (Promega, Cat. No. E2650) • Incubate for 10 min in the dark • Measure luminescence 2 sec per well (Wallac Microbeta) Data Analysis […]

SMILES	MBP mRNA [1]	Human PPAR RXR EC50 (human RXR receptor)
Cc1cc(SCc2sc(-c3ccc(C(F)(F)F)cc3)nc2C)ccc1OCC(=O)O [Compound 1]	enhancement	No increase
CCCc1c(OCCCOc2ccc(OCC(=O)O)cc2)ccc(C(C)=O)c1O [Compound 2]	enhancement	No increase
